The values below come from patent US20100087649A1, “QUINOLINONE DERIVATIVES” (priority 2006, published 2010).

Data set [1] relates to wild-type HIV-IIIB strain. Kind of data set: Antiviral analysis EGFP: anti-HIV activity in MT4 LTR-EGFP cells. The class given is cell-based, HIV-1. To be noted: Human immunodeficiency virus 1, 72 h, fluorescence of HIV-infected cells reduced by 50%, three days after infection. The method, boiled down: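 MT4 T-cells carrying an HIV-1 LTR-driven EGFP reporter were infected with HIV-IIIB; fluorescence was measured by scanning microscope image analysis three days post-infection. EC50 (μM) is the concentration cutting infected-cell fluorescence by 50%; CC50 is the same on mock-infected cells.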

The nature of data set [2]: Cytotoxicity in mock-infected MT4 CMV-EGFP cells. The class given is cell-based, human. To be noted: human, fluorescence reduced by 50%.

SMILES strings stand for the structures. Bounds are passed on as bounds.

As usually defined, the EC50 is the midpoint of the concentration-response curve. For orientation: CC50 means the concentration giving 50% cytotoxicity. Higher therefore signals lower toxicity to the cells.

For `Cc1ccc(-n2c(=O)c(C#N)cc3ccc(Br)cc32)cc1C#N` [compound 149], the EC50 in data set [1] was determined as 2.74 µM. Moreover, the CC50 at 3 days in data set [2] was above 100 µM.
The corresponding values for `N#Cc1cc2ccc(=O)[nH]c2n(-c2ccc([N+](=O)[O-])cc2)c1=O` [compound 100] are above 32 µM and above 32 µM.
In data set [1], `Cc1ccc(-n2c(=O)c(C#N)cc3ccccc32)cc1C#N` [compound 163] had a concentration for a half-maximal effect (EC50) of 9.25 µM. Moreover, in data set [2], the CC50 at 3 days was above 100 µM.
For `N#Cc1cc2ccc(O)cc2n(-c2ccc([N+](=O)[O-])cc2)c1=O` [compound 10], in that order: 13.3 µM and above 32 µM.
For `N#Cc1cc2cc(O)c(O)cc2n(-c2ccc([N+](=O)[O-])cc2)c1=O` [compound 94], in that order: above 32 µM and above 32 µM.
For `Cc1c(C#N)c(=O)n(-c2ccc([N+](=O)[O-])cc2)c2ccccc12` [compound 7], in that order: 9.34 µM and above 100 µM.
With `Cn1c(=O)oc2cc(-n3c(=O)c(C#N)cc4ccccc43)ccc21` [compound 8], the half-maximal effective concentration (EC50) in data set [1] came out at 12.5 µM. Also, the 50% cytotoxic concentration (CC50) at 3 days in data set [2] was above 100 µM.
The corresponding values for `COc1cc2cc(C#N)c(=O)n(-c3ccc([N+](=O)[O-])cc3)c2cc1OC` [compound 93] are 7.01 µM and above 32 µM.
Turning to `Cc1ccc(-n2c(=O)c(C#N)cc3ccc(OCCCN4CCCC4)cc32)cc1C#N` [compound 148], the EC50 in data set [1] was determined as 0.64 µM. Also, it took 51.5 µM to reach half-maximal cytotoxicity in data set [2] (CC50 at 3 days).
The corresponding values for `N#Cc1c(N)c2ccccc2n(-c2ccc([N+](=O)[O-])cc2)c1=O` [compound 101] are above 32 µM and above 32 µM.
For `Cc1ccc(-n2c(=O)c(C#N)cc3ccc(-c4ccccn4)cc32)cc1C#N` [compound 159], in that order: 1.74 µM and 86 µM.
The corresponding values for `Cc1ccc2c(N(C)C)c(C#N)c(=O)n(-c3ccc([N+](=O)[O-])cc3)c2n1` [compound 127] are 22.4 µM and above 32 µM.
On to `Cc1ccc(-n2c(=O)c(C#N)c(N)c3ccc(Br)cc32)cc1C#N` [compound 121], for which a half-maximal effect in data set [1] (EC50) was put at 0.75 µM. The compound further returned a CC50 at 3 days in data set [2] of 55.2 µM.
